In US4482709A, “Inclusion compounds of cyclodextrin with sulfur-containing compounds” (Santen Pharmaceutical Co., Ltd., priority 1981, dated 1984):
≈ marks a conversion by molar mass, not a printed value.

Test: Solubility Test (solubility in water)
Assay type: physicochemical
Text: Solubility in water of inclusion compound of cyclodextrin with compound A or compound C is shown below. As the result, the inclusion compound is extremely more soluble in water than the starting compound.

Which solubility does the source give for `O=C(O)[C@@H]1CS[C@H](c2ccccc2O)N1C(=O)CCS` [Compound A, (2R,4R)-2-(2-hydroxyphenyl)-3-(3-mercaptopropanoyl)-4-thiazolidinecarboxylic acid] here?
Its solubility is 1600 µg/mL (≈ 5110 µM).

With `O=C(O)[C@@H]1CSC(c2ccccc2O)N1C(=O)CCSSCCC(=O)N1C(c2ccccc2O)SC[C@H]1C(=O)O` (stereo partly drawn) [Compound C, (4R,4'R)-3,3'-[3,3'-dithiobis(propanoyl)]bis[2-(2-hydroxyphenyl)-4-thiazolidinecarboxylic acid]] as the compound, how does the solubility read?
Its solubility is 100 µg/mL (≈ 160 µM).
